Literature values in patent publication US4833164A (E. I. Du Pont de Nemours and Company, priority 1986, dated 1989).

Tested on: lipoxygenase
Conditions: Nakadate et al.; Van Wauwe and Goossens; Panganamala et al.

lipoxygenase inhibitor (literature): lipoxygenase inhibitor
Structure (SMILES): Oc1cccc2ccccc12 [Example 1-naphthol, 1-naphthol]
